# In PMC9814901, “One-pot synthesis of cyclic-aminotropiminium carboxylate derivatives with DNA binding and anticancer properties” (Communications Chemistry, 2022):
# Legend:
# HEK293 cells = experiment: MTS cell viability assay in HEK293; type: cell-based; settings: HEK293, 30 μM, 18 h
# Procedure: (§1) We investigated the effect of nine cATC derivatives (6b/6d/6e/6f/6i/6j/6k/6l/6n) on cell viability in cancer cell-line HeLa and transformed normal cell-line HEK293. We treated cells with the varying concentrations of the compounds ranging from 10 nM to 50 μM for 18 h (optimized).
# (§2) MTS assay (CellTiter 96® AQueous One Solution Cell Proliferation Assay (Promega, USA) was used to determine the cell viability. HeLa and HEK293 cells (20,000 cells in each well) were plated in 96 well plate and treated with 6e, 6j, and 6n varying concentrations of the compounds ranging from 10 nM to 50 μM for 18 h. The assay was carried out according to the manufacturer’s instructions. Finally, the plate was read in Varioskan™ LUX multimode microplate reader (Thermo Fisher Scientific) at 490 nm.
# (§3) Cell scavenging activity was calculated using the following formula:
# (§4) OD(490nm) (control) – OD(490nm) (Test)/OD(490nm) (control) × 100%
# (§5) Cell Viability of the cell was calculated using the following formula: […]
# [1] = MTS cell viability assay in HEK293; type: cell-based; settings: human, HEK293 cells, HEK293, 30 μM
# Procedure: as §1, §2, §3, §4, §5
# 4T1 cell derived tumor = experiment: 4T1 xenograft tumor growth in Balb/C mice; type: in vivo, mouse; settings: Balb/C 4T1 model, 6e 1 mg/kg/day, 6j 0.5 mg/kg/day, 6n 1 mg/kg/day
# Procedure: To understand the potential and tolerance of 6e, 6j, and 6n compounds using in vivo system, we used Balb/C 4T1 cell line xenograft mouse model. Treatment was initiated after tumors reached a mean value of 20.47 mm^3 (day 8) and treated with 6e, 6j, and 6n at a dosage of 1 mg/kg/day, 0.5 mg/kg/day, and 1 mg/kg/day, respectively. Body weight and activity were observed three days post injection, every alternative day. […] Based on this study, we deduced that these compounds are well tolerated by the animals.
# All animal experiments were approved by the Institutional Animal Ethics Committee, NISER, India (AH-214). Female BALB/c mice (aged 6–8 weeks, 18–20 g) were injected with 1 × 10^6 4T1 breast cancer cells into the mammary fat pad. After one week, 6j (0.5 mg/kg), 6e (1 mg/kg) and 6n (1 mg/kg) compounds were injected intraperitoneally in mice at the interval of every 24 h for a period of 21 days. Thereafter, the mice were sacrificed and the xenograft tumors were removed, weighed, and photographed.
# HeLa cells [2] = experiment: Apoptosis analysis, FITC Annexin V / PI flow cytometry; type: cell-based; settings: IC50 concentration, 18 h
# Procedure: The apoptotic effect of 6e, 6j, and 6n compounds on cancer cells was detected using FITC Annexin V Apoptosis Detection Kit I (BD Pharmingen™, NJ, USA) according to the manufacturer’s protocol. 0.5 × 10^6 […] HeLa cells were seeded in a 6-well plate and treated with IC50 concentrations for 18 h. Harvested cells were incubated with Annexin V FITC and PI PE-conjugated antibody and apoptosis was evaluated using FACSCalibur (BD Biosciences, CA, USA) flow cytometry. Data were analyzed using CellQuest Pro software (BD Biosciences).
# HeLa cells [3] = experiment: Scratch (wound healing) assay in HeLa; type: cell-based; settings: 6e 18 μM, 6j 19.23 μM, 6n 18.92 μM, 0 h to 24 h
# Procedure: HeLa and HEK293 cells (0.25 × 10^6) were seeded into 12-well plates to grow in a monolayer for 24 h. A Scratch was made in the middle of the well using a sterile 200 µl pipette tip. The detached cells were removed by washing with 1x DPBS. The cell monolayers were treated for 18 h with 19 µM of 6n and 6j, and 18 µM of 6e with 10% DMEM. DMSO with 10% DMEM was used as a control. Images were collected at 0 h and 24 h under an inverted microscope (Ziess, Germany) at (4×) magnification. Cell migration was analyzed using ImageJ (NIH) software.
# ct-DNA duplex = experiment: Circular dichroism of ct-DNA with cATC derivatives; type: binding; settings: increasing concentration of cATC derivatives
# Source text: Further, we examined the effect of cATC derivatives (6a/6e/6j/6n) on the ct-DNA duplex structure by circular dichroism (CD) studies. We recorded the CD spectra of ct-DNA with the increasing concentration of cATC derivatives (SM, Fig. S24). […] Next, we examined the binding site of cATC derivative (ligand) at the DNA duplex structure by using AutoDock-Vina, a well-reported computational docking program. We performed docking of cATC derivatives (6a/6d/6k) crystal structure (ligand) with dodecamer DNA duplex crystal structure (PDB ID-1BNA) as the receptor. Our docking results strongly support the non-covalent interaction of cATC derivatives (6a/6d/6k) at the DNA-minor groove with the binding affinity ~7.0 Kcal/mole, mostly hydrophobic interactions (SM, Figs. S25–7, Table S8). […] Overall, cATC derivatives non-covalently bind with DNA duplex through the non-intercalative mode without affecting the native duplex structure. Next, we examined the DNA binding affinity of cATC derivatives (6e/6j/6n) by gel-electrophoresis. The different concentrations of human genomic DNA were treated with EtBr (control) and cATC derivatives (6e/6j/6n) and ran on 1% agarose gel (SM, Fig. S28A–D). […] Further, the Microscale thermophoresis (MST) technique was used to calculate the binding affinities of cATC derivatives (6e/6j/6n) (20 µM) with varying concentrations of human genomic DNA (40 fM to 75 pM).
# human genomic DNA = experiment: Microscale thermophoresis (MST) binding of cATC derivatives to human genomic DNA; settings: cATC derivative 20 µM, human genomic DNA 40 fM to 75 pM
# Source text: Further, we examined the effect of cATC derivatives (6a/6e/6j/6n) on the ct-DNA duplex structure by circular dichroism (CD) studies. We recorded the CD spectra of ct-DNA with the increasing concentration of cATC derivatives (SM, Fig. S24). […] Next, we examined the binding site of cATC derivative (ligand) at the DNA duplex structure by using AutoDock-Vina, a well-reported computational docking program. We performed docking of cATC derivatives (6a/6d/6k) crystal structure (ligand) with dodecamer DNA duplex crystal structure (PDB ID-1BNA) as the receptor. Our docking results strongly support the non-covalent interaction of cATC derivatives (6a/6d/6k) at the DNA-minor groove with the binding affinity ~7.0 Kcal/mole, mostly hydrophobic interactions (SM, Figs. S25–7, Table S8). […]
# DNA was isolated from 10 × 10^6 HeLa cells by QIAmp DNA mini Kit (Qiagen, Germany). cATC derivatives (6e, 6j, and 6n dissolved in a mixture of 1X PBS containing 1% DMSO) and DNA ranging from a concentration of 40 fM to 75pM (resuspended in 1X TE with 0.05% Tween-20), was used for analyzing the interaction of cATC derivatives with DNA. […] 15 µl of the above mixture was loaded in capillaries and binding affinity was measured using the NanoTemper instrument followed by analysis through NanoTemper analysis 1.2.231 software.
compound,measurement,setting,value
Cc1cccc(C2C(C(=O)[O-])N(CCc3ccccc3)c3ccccc[c+]3N2Cc2ccccc2)c1 (centres unmarked) [Compound 6e],Growth inhibition,HEK293 cells,61.1%
same,"viability at 18 h, 30 µM",[1],38.8%
same,tumor growth / tumor size,4T1 cell derived tumor; day 8 till day 20,inhibit tumor growth in vivo
same,behavior/activity versus control group,4T1 cell derived tumor; intraperitoneal,normal behavior/activity
same,body weight versus control group,4T1 cell derived tumor; intraperitoneal,no significant difference in body weight
same,Late Apoptotic cells (FITC-AV+/PI+),HeLa cells [2]; control 2.9 %,15.6%
same,Early Apoptotic cells (FITC-AV+/PI-),HeLa cells [2]; control 3.6 %,62.5%
same,cells entered into apoptotic phase,HeLa cells [2]; control 6.5%,78.2%
same,effect on cell migration in scratch wound,HeLa cells [3],inhibited cell migration significantly
same,effect on B-type duplex CD spectrum of ct-DNA,ct-DNA duplex,almost remained unchanged
same,Hill's coefficient (nH),human genomic DNA,1.6
